The test system of assay [1] is acute myelocytic leukemia (AML) cell line MV4-11. Nature of the assay: Oncology cell growth assay (3-day proliferation, CellTiter-Glo). Type of assay: cell-based. Particulars: Homo sapiens, MV4-11, 72 h, MV4-11 cells, 3000 cells/well, compounds listed under IC50 range headings, read-out: MV411 IC50 (gIC50, inhibition of proliferation). Summed up: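 72 h, 37° C, 5% CO2; MV4-11, 3000 cells/well, RPMI 1640 + 10% FBS. Compound final 10, 3.3, 1.1, 0.37, 0.12, 0.041, 0.013, 0.0045 μM. Readout CellTiter-Glo luminescence; gIC50 by 4-parameter logistic fit, normalised to DMSO and no-cell background.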

Assay [2] concerns the target T1, BRD4 Bromodomain 1 (BRD4 BD1) (Homo sapiens, UniProt O60885).
T1 construct: 44-168 and BRD4 BD2
Nature of the assay: AlphaScreen binding assay, BRD4 BD1. Particulars: His-tagged BRD4 BD1 50 nM, biotinylated H4 (1-21) K5/8/12/16 tetra-acetylated peptide 50 nM, compounds listed under IC50 range headings. Summed up:
(§1)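 An AlphaScreen competition format was used with His-BRD4 BD1 or BD2 and biotin-H4 K5/8/12/16-acetyl peptide, each at matched final levels of 50 nM (BD1) or 100 nM (BD2). Incubation in HEPES/NaCl buffer with 0.1% BSA and 0.01% Triton X-100 ran ≥1 h before IC50 determination.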

Assay [3] concerns the target T2, BRD4 Bromodomain 2 (BRD4 BD2) (Homo sapiens, UniProt O60885).
T2 construct: 333-460 were cloned, expressed, and purified to homogeneity
Description: AlphaScreen binding assay, BRD4 BD2. Particulars: His-tagged BRD4 BD2 100 nM, biotinylated H4 (1-21) K5/8/12/16 tetra-acetylated peptide 100 nM, compounds listed under IC50 range headings. Summed up: as §1

pIC50: −log10 of the molar value.

Consider `COC(=O)N1c2ccc(-c3cnn([C@@H]4CCNC[C@@H]4F)c3)c(Oc3ccc(F)cc3)c2CC[C@@H]1C` [I-365, methyl (2 S)-5-(4-fluorophenoxy)-6-{1-[(3S,4R)-3-fluoropiperidin-4-yl]-1H-pyrazol-4-yl}-2-methyl-1,2,3,4-tetrahydroquinoline-1-carboxylate], for which the pIC50 is over 6.30 in assay [1], 6.00 to 7.00 in assay [2] and over 7.30 in assay [3].

With `CC(=O)N1c2ccc(-c3cnn(C4CCNCC4)c3)c(Oc3ccc(C(F)(F)F)cn3)c2CC[C@@H]1C` [I-512], the pIC50 is over 6.30 in assay [1], 6.00 to 7.00 in assay [2] and 6.30 to 7.30 in assay [3].

Turning to `COC(=O)N1c2ccc(-c3cnn(CCS(C)(=O)=O)c3)c(OCC3CCCC3)c2CC[C@@H]1C` [I-459], the figures for the pIC50 in assay [1], in assay [2] and in assay [3] were under 6.00, 6.00 to 7.00 and 6.30 to 7.30, respectively.

For the molecule `COC(=O)N1c2ccc(-c3cnn(CCO)c3)c(Oc3ncc(C4CC4)cn3)c2CC[C@@H]1C` [I-572], the pIC50 in assay [1] was over 6.30; in assay [2], 5.00 to 6.00; in assay [3], 6.30 to 7.30.

With `CC(=O)N1c2ccc(-c3cnn(C4CCNCC4)c3)c(OCC3CCCC3)c2CC[C@@H]1C` [I-427], the pIC50 in assay [1] was over 6.30; in assay [2], over 7.00; in assay [3] it was over 7.30.

With `COC(=O)N1c2ccc(-c3cnn(C4CC4)c3)c(OC3CN(C(C)C)C3)c2CC[C@@H]1C` [I-252, (S)-methyl 6-(1-cyclopropyl-1H-pyrazol-4-yl)-5-(1-isopropylazetidin-3-yloxy)-2-methyl-3,4-dihydroquinoline-1(2H)-carboxylate], the values for the pIC50 in assay [1], in assay [2] and in assay [3] were under 6.00, 5.00 to 6.00 and at most 6.30, respectively.

In the case of `COC(=O)N1c2ccc(-c3cnn(C4CC4)c3)c(Oc3cnccn3)c2CC[C@@H]1C` [I-561], the pIC50 in assay [1] is 6.00 to 6.30; in assay [2], 5.00 to 6.00; in assay [3] it was 6.30 to 7.30.

For the molecule `COC(=O)N1c2ccc(-c3cnn(C4CCNCC4)c3)c(Oc3cccc(C#N)c3)c2CC[C@@H]1C` [I-596], the pIC50 in assay [1] is over 6.30; in assay [2], 5.00 to 6.00; in assay [3], 6.30 to 7.30.

With `COC(=O)N1c2ccc(-c3cnn(C4CC4)c3)c(Oc3ccc(C(F)(F)F)cn3)c2CC[C@@H]1C` [I-557], the pIC50 in assay [1] is under 6.00; in assay [2], 5.00 to 6.00; in assay [3], 6.30 to 7.30.

Consider `COC(=O)N1c2ccc(-c3cnn(C4CC4)c3)c(Oc3ncc(C(F)(F)F)cc3F)c2CC[C@@H]1C` [I-591], for which the pIC50 is 6.00 to 6.30 in assay [1], 5.00 to 6.00 in assay [2] and 6.30 to 7.30 in assay [3].

Regarding `CCCOc1c(-c2cnn(CC(C)(C)O)c2)ccc2c1CC[C@H](C)N2C(C)=O` [I-408], the pIC50 in assay [1] is over 6.30; in assay [2] it was 6.00 to 7.00; in assay [3], over 7.30.

Regarding `COC(=O)N1c2ccc(-c3cnn(C4CCNCC4)c3)c(Oc3ccc(C#N)cc3F)c2CC[C@@H]1C` [I-135, (S)-methyl 5-(4-cyano-2-fluorophenoxy)-2-methyl-6-(1-(piperidin-4-yl)-1H-pyrazol-4-yl)-3,4-dihydroquinoline-1(2H)-carboxylate], the pIC50 is over 6.30 in assay [1], 6.00 to 7.00 in assay [2] and over 7.30 in assay [3].

Turning to `COC(=O)N1c2ccc(-c3cnn(C4CC4)c3)c(OCCF)c2CC[C@@H]1C` [I-11, (S)-methyl 6-(1-cyclopropyl-1H-pyrazol-4-yl)-5-(2-fluoroethoxy)-2-methyl-3,4-dihydroquinoline-1(2H)-carboxylate], the values for the pIC50 in assay [1], in assay [2] and in assay [3] were under 6.00, 5.00 to 6.00 and over 7.30, respectively.

For `CC(=O)N1c2ccc(-c3cnn(C4CCNCC4)c3)c(OCC(C)C)c2CC[C@@H]1C` [I-423], the pIC50 in assay [1] was over 6.30; in assay [2], over 7.00; in assay [3], over 7.30.

For the origin of these results see patent US10611750B2, “Tetrahydroquinoline compositions as bet bromodomain inhibitors” (FORMA Therapeutics, Inc., priority 2013, dated 2020).
